Measured values published in article PMC7163137, “The Pyrimidine Analog FNC Potently Inhibits the Replication of Multiple Enteroviruses” (Journal of Virology, 2020).
Like-named read-outs stand apart in the source and are kept apart here.

Tests used:
[1] = Cytotoxicity, CCK-8 cell viability assay in RD cells; assay type: cell-based, human; settings: human
Procedure: (§1) The cells were treated with various concentrations of compounds dissolved in DMSO for 48 h, and then cell viability was assayed using a Cell Counting kit‑8 (CCK-8; Beyotime, Shanghai, China). In brief, 10 μl of the CCK‑8 solution was added, and the cells were incubated for an additional 2 h. Medium without cells was used as a blank control. Absorbance at a wavelength of 450 nm was measured using a microplate reader. Cell viability was determined as a percentage of that of the control. All cell proliferation assays were performed in triplicate and repeated in three independent experiments.

RD cells = assay: as above; assay type: cell-based, human; settings: 48 h
Procedure: as §1

HEK293T cells = assay: Cytotoxicity, CCK-8 cell viability assay in HEK293T cells; assay type: cell-based; settings: 48 h
Procedure: as §1

MDCK cells = assay: Cytotoxicity, CCK-8 cell viability assay in MDCK cells; assay type: cell-based; settings: 48 h
Procedure: as §1

RSV = assay: Anti-RSV activity in HEK293T cells (Western blot, RT-qPCR); assay type: cell-based, respiratory syncytial virus; settings: MOI 0.5, 48 h, safe drug concentrations
influenza A(H1N1) virus = assay: Anti-influenza A(H1N1) activity in MDCK cells (Western blot, RT-qPCR); assay type: cell-based
EV71 3D^pol [2] = target: T1, EV71 3D^pol (Human enterovirus 71, UniProt Q66478); assay: Isothermal titration calorimetry with EV71 3Dpol; assay type: binding
T1 construct: EV71 3D^pol was cloned into the pET28a expression vector with a His tag at the N terminus; His tag (N); made in house; host or cells: E. coli BL21-derived cells
T1 sequence (Q66478 1732-2193): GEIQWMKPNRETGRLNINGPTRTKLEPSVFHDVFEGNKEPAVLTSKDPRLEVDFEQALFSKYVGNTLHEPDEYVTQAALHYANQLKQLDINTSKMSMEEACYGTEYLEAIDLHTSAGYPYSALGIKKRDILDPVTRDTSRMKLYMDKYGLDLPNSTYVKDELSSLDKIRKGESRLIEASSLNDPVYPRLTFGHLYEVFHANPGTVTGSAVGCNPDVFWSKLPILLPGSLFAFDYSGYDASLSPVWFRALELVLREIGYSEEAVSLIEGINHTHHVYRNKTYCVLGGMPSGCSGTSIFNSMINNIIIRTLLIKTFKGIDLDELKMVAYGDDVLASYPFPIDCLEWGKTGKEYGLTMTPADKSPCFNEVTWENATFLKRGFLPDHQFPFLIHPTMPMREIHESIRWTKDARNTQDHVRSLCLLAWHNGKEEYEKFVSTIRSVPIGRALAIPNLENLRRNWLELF
Procedure: (§2) EV71 3D^pol was cloned into the pET28a expression vector with a His tag at the N terminus and expressed in E. coli BL21-derived cells. The 3D^pol protein was purified by Ni-column affinity chromatography, and a gel filtration column was connected to an ÄKTA system (General Electric Company, CT, USA). The purity of the resulting 3D^pol protein was determined through SDS-PAGE analysis.
ITC experiments were performed by using an ITC200 instrument (MicroCal, Inc., Northampton, MA, USA). The concentration of 3D^pol was 100 μM. FNC was diluted with buffer (pH 7.5, 25 mM HEPES, 100 mM NaCl) to yield a solution of 1.0 mM. The sample cell was filled with 3D^pol protein solution, and FNC was added by syringe at 25°C. The stirring rate was 750 r/min. All data were analyzed using the Origin 7.0 software.

EV71 3D^pol [3] = target: T1, EV71 3D^pol; assay: Fluorescence-based activity assay for EV71 3Dpol; assay type: biochemical; settings: poly(A)/UTP, SYTO 9, 30°C
Procedure: as §2
We followed the novel fluorescence-based method for the detection of polymerase activity of EV71 3D^pol ([52]). Reactions were performed in individual wells of black 96-well flat-bottom plates. The standard reaction contained 50 mM Tris-HCl (pH 7.5), 2.5 mM MnCl2, 100 μM UTP, 40 μg/ml poly(A), 0.1 mg/ml bovine serum albumin (BSA), and 0.25 μM SYTO 9. Different concentrations of FNC were added to the reaction mixtures. The assay was initiated by the addition of EV71 3D^pol, and the fluorescence was recorded at 30°C.

EV71 CC063 = assay: Lethal EV71 challenge, neonatal mouse model; assay type: in vivo, ICR neonatal mice
Procedure: (§3) One-day-old specific pathogen-free (SPF) ICR neonatal mice (Beijing Institute of Radiation Medicine) were used to establish the animal model of viral infection. All welfare and experimental procedures were carried out strictly in accordance with the Guide for the Care and Use of Laboratory Animals and the related ethical regulations of the Beijing Institute of Radiation Medicine. All efforts were made to minimize animal suffering. The neonatal mice were randomly divided into five groups, and each group contained three litters (n = 8 to ∼10 per litter). One group was inoculated intracerebrally with DMEM (10 μl/mouse) and after 1 h injected intraperitoneally with DMSO (control group). Two groups were inoculated intracerebrally with EV71 CC063 (10^5.5 CCID50 ml^−1) and after 1 h injected intraperitoneally with FNC or DMSO. Two groups were inoculated intracerebrally with CA16 CC045 (10^2.7 CCID50 ml^−1) and after 1 h injected intraperitoneally with FNC or DMSO. The survival rates and mean clinical symptoms were monitored daily for 15 days postinfection. The mean clinical symptoms were scored as follows: 0, healthy; 1, lethargy or weakness; 2, wasting; 3, limb tremors; 4, paralysis in hind limb; and 5, moribund or dead. The control mice were healthy throughout the experiments.
(§4) After intracerebral inoculation with EV71 CC063 viruses, CA16 CC045 viruses, or culture medium, three experimental neonatal mice and three control neonatal mice were subjected to viral load detection. The EV71 infection and control groups were collected on day 9 postinfection, and the CA16 infection and control groups were collected on day 14 postinfection. All tissues, including brain, lung, spine skeletal muscle, and hind-limb muscle, were weighed individually, homogenized in sterile PBS, disrupted by freeze-thawing, and centrifuged. The samples were treated with TRIzol (Invitrogen) for RNA extraction and viral load determination by real-time PCR, as described previously ([42]). Viral loads were determined by real-time PCR and expressed as log10 copies/mg tissue.
A total of 15 mice were sampled, as follows: three normal mice from the mock-infected group (the clinical score of grade 0), three mice from the EV71-infected and DMSO-treated group (the clinical score of grade 4), three mice from the CA16-infected and DMSO-treated group (the clinical score of grade 3), three mice from the EV71-infected and FNC-treated group (the clinical score of grade 3), and three mice from the CA16-infected and FNC-treated group (the clinical score of grade 1). After the mice were anesthetized, lung, brain, spine skeletal muscle, and hind-limb muscle tissues were harvested and immersion fixed with 10% formaldehyde solution for 5 days. […]

CA16 CC045 = assay: Lethal CA16 challenge, neonatal mouse model; assay type: in vivo, ICR neonatal mice
Procedure: as §3
as §4, with “tissue. […]” for “tissue.”

deoxycytidine kinase = tested on: deoxycytidine kinase; set-up: method as in PMID 18003608; settings: substrate for deoxycytidine kinase ref 32; cited from earlier work
CA6 = assay: Anti-CA6 activity in infected RD cells (RT-qPCR); settings: read-out: EC50 for CA6
CA16 = assay: Anti-CA16 activity in infected RD cells (RT-qPCR); settings: Enterovirus A, read-out: EC50 for CA16
CVB3 = assay: Anti-CVB3 activity in infected RD cells (RT-qPCR); settings: Enterovirus B, read-out: EC50 for CVB3
EVD68 = assay: Anti-EVD68 activity in infected RD cells (RT-qPCR); settings: Enterovirus D, read-out: EC50 for EVD68
[4] = tested on: EV71, CA16, CA6, CVB3, and EVD68; assay: Antiviral activity against a variety of enteroviruses in RD cells
EV71 [5] = assay: Anti-EV71 activity in infected RD cells (Western blot, RT-qPCR, virus titer)
EV71 [6] = tested on: EV71; set-up: method as in PMID 18279075; settings: RD cells, virus-induced CPE assay ref 27; read-out: 50% effective concentration (EC50) against EV71; cited from earlier work
[7] = vs DMSO treatment group, P < 0.05

[N-]=[N+]=N[C@]1(CO)O[C@@H](n2ccc(N)nc2=O)[C@@H](F)[C@@H]1O [FNC, 2'-deoxy-2'-β-fluoro-4'-azidocytidine]
CC50 at 48 h [1]: 3.24 µM | concentration that did not significantly affect cell viability (safe dose) (RD cells): 1 µM | safe dose (HEK293T cells): 100 µM | safe dose (MDCK cells): 10 µM | effect on RSV replication (viral proteins, RNA) (RSV): no inhibitory effect | effect on H1N1 replication (viral proteins, RNA) (influenza A(H1N1) virus): no inhibitory effect | Kd (EV71 3D^pol [2]): 6 µM | RNA synthesis activity of EV71 3Dpol (EV71 3D^pol [3]): inhibited the RNA synthesis activity of EV71 3D^pol in a dose-dependent manner | tissue damage, H&E histology (EV71 CC063; EV71-infected spinal skeletal muscle and hind-limb muscle): significantly reduced the damage | mortality (EV71 CC063; EV71 CC063 intracerebral, 1-day-old mice, 1 mg/kg i.p. days 1, 3, 6, 9, 12, 15 days): 20% | EV71 viral load in spine skeletal muscle and hind-limb muscle (RT-qPCR) (EV71 CC063; [7]): completely decreased | EV71 viral loads in brain and lung (RT-qPCR) (EV71 CC063; [7]): moderately reduced | tissue damage, H&E histology (CA16 CC045; CA16-infected brain, spinal skeletal muscle, hind-limb muscle): significantly reduced the damage | mortality (CA16 CC045; CA16 CC045 intracerebral, 1-day-old mice, 1 mg/kg i.p. days 1, 3, 6, 9, 12, 15 days): 0% | CA16 viral load in all detected tissues (RT-qPCR) (CA16 CC045; brain, lung, spine skeletal muscle, hind-limb muscle, vs DMSO, P < 0.05): completely decreased | phosphorylation efficiency relative to deoxycytidine (deoxycytidine kinase): up to 3 fold | EC50 (CA6): 13.4 nM | EC50 (CA16): 52.1 nM | EC50 (CVB3): 33.8 nM | EC50 (EVD68): 1.55 nM | virions in the supernatant and viral titers ([4]; CA16, CA6, CVB3, EVD68, RD cells): suppressed by FNC in a dose-dependent manner | positive- and negative-strand EV RNA synthesis (RT-qPCR) ([4]; EV71, CA16, CA6, CVB3, EVD68, RD cells, 48 h): inhibited both positive- and negative-strand EV RNA synthesis | selectivity indices (CC50/EC50) against EVs ([4]; RD cells): good selectivity indices | EC50 ([4]; RD, read-out: EC50 against a variety of enteroviruses): 1.55 to 52.1 nM | suppression of EVs (VP1 protein expression, viral RNA levels, viral titers) ([4]; in vitro cell model): efficiently suppressed | virus titers in supernatants (plaque assay, CPE-based TCID50) (EV71 [5]; EV71-infected RD cells, increasing doses): continuously decreasing virus titers | EC50 (EV71 [5]; Enterovirus A, EV71, RD, 48 h, read-out: EC50 against EV71, RD cells, from reduced viral RNA level (RT-qPCR), 48 h): 16.9 nM | EV71 VP1 protein by Western blot (EV71 [5]; RD cells, 100 nM, 48 h postinfection): could not be detected | anti-EV71 activity, intracellular VP1 protein by Western blot (EV71 [5]; RD cells, MOI 0.1, 48 h treatment, 1 μM): obvious anti-EV71 activity

NC(=O)c1ncn([C@@H]2O[C@H](CO)[C@@H](O)[C@H]2O)n1 [ribavirin]
interaction with EV71 3Dpol by ITC (EV71 3D^pol [2]; ITC, 25°C, 3 mM ribavirin into 100 μM 3Dpol): failed to observe the interaction | EC50 (EV71 [6]): 266 µM
